{"source": "ChEMBL document CHEMBL1201862", "about": "“PubChem BioAssay data set” (2004)", "key": {"[1]": {"molecular_target": "T1, Corticotropin-releasing factor receptor 2/Corticotropin-releasing factor-binding protein (Homo sapiens, UniProt P24387+Q13324)", "T1 sequence (Q13324 whole entry)": "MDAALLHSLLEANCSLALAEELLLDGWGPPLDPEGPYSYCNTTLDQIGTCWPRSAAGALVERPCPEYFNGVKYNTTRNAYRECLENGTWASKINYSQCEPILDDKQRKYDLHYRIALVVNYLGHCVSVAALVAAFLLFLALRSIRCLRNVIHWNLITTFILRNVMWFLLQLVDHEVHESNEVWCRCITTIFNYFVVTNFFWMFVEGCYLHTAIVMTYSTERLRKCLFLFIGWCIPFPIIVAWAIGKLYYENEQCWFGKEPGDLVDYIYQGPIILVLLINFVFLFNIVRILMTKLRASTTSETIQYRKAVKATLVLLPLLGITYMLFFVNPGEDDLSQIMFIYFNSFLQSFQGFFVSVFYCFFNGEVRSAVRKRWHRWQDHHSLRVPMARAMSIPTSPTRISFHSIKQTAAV", "T1 sequence (P24387 whole entry)": "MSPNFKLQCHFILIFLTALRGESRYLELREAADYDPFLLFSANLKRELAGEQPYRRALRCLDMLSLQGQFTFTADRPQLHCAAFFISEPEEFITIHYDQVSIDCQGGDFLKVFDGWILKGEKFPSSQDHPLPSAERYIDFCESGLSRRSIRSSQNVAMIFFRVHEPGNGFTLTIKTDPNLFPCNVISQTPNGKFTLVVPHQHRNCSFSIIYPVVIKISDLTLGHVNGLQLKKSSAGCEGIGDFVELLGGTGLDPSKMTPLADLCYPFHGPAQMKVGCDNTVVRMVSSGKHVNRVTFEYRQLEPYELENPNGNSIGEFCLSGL", "test": "Dose Response confirmation of uHTS hits for small molecule antagonists of the CRF-binding protein and CRF-R2 receptor complex.", "type": "functional", "settings": "read-out: IC50_Mean"}, "[2]": {"molecular_target": "T1, Corticotropin-releasing factor receptor 2/Corticotropin-releasing factor-binding protein", "test": "activators of CRF receptor 2 with binding protein – uHTS hits, confirmation (AID 602473)", "type": "functional", "settings": "read-out: EC50_Mean"}, "INS1": {"tested_on": "INS1", "test": "beta cell apoptosis inhibitors, cytokine rescue, dose response, luminescence, retest (AID 449756);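 note: cell death triggered by IL-1 beta plus TNF-alpha plus IFN-gamma mixture; protective hits raise ATP signal compared with cytokine alone wells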", "type": "functional, cell-based", "settings": "Rattus norvegicus, INS1"}, "[3]": {"test": "inhibitors of firefly luciferase expression or activity, dose response, H4 neuroglioma cells, luminescence (AID 1990)", "type": "functional, cell-based"}, "[4]": {"tested_on": "Streptococcus sp. 'group A'", "test": "growth inhibition of control SK(-) GAS strain, dose response, counter-screen for streptokinase expression inhibitor project, luminescence, kanamycin, BacTiterGlo, confirmation (AID 1900)", "type": "functional, organism-based"}, "[5]": {"test": "Luminescence Cell-Based Dose Response HTS to Identify Inhibitors of 5'UTR Stem-Loop Driven Prion Protein mRNA Translation in H4 Neuroglioblastoma Cells. [Related pubchem assays: 1827 (Project Summary), 1813 (Primary HTS)]", "type": "functional"}, "[6]": {"test": "inhibitors of SNCA 5'UTR-driven reporter translation, confirmation, H4 neuroglioma cells, luminescence (AID 1988)", "type": "functional, cell-based"}, "Streptokinase A": {"molecular_target": "T2, Streptokinase A (Streptococcus pyogenes serotype M1, UniProt P10520)", "T2 sequence (P10520 whole entry)": "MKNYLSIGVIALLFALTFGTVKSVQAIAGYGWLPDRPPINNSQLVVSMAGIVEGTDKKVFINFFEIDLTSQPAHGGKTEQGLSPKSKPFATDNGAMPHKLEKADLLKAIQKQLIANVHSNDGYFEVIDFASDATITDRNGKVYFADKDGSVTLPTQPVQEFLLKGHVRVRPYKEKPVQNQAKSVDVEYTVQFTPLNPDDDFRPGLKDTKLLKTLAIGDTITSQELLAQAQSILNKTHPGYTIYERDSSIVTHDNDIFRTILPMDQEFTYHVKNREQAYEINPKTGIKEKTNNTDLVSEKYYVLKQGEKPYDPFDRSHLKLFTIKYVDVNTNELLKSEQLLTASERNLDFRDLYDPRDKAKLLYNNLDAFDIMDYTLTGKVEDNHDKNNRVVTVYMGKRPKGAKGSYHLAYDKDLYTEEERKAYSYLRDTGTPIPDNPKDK", "test": "S. pyogenes streptokinase expression inhibitors, potency, dose response, plasminogen activation absorbance, OD405 (AID 1914);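 note: secreted streptokinase activity via plasminogen activation per viability signal from cell pellet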", "type": "functional, Streptococcus pyogenes M1 GAS"}, "Streptococcus": {"tested_on": "Streptococcus", "test": "Group A Streptococcus viability loss, dose response, counter-screen for streptokinase expression inhibitor project, luminescence, BacTiterGlo (AID 1915);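 note: potency for reduction of bacterial viability or growth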", "type": "functional, organism-based"}, "[7]": {"test": "inhibitors of intracellular T. cruzi replication, confirmation, NIH3T3 host cells, beta-gal luminescence (AID 2044);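 note: luminescent beta-galactosidase reporter signal from transgenic T. cruzi replicating inside host cells; inhibitors lower the luminescence signal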", "type": "functional, cell-based"}, "[8]": {"test": "cytotoxicity toward NIH3T3 fibroblasts, dose response, counter-screen, cell-based, ATP luminescence, mouse fibroblasts (AID 2010);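 note: cells exposed to compound for about 90 hours before reading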", "type": "functional"}}, "note": "Calls of active or inactive are those of the source. Cut-off read from the data, not from the text of the source, for most assays here: actives have a measured EC50 and inactives only a lower limit.", "data": [{"smiles": "Cc1ccc(C)c(C(C)NC(=O)c2ccccc2Br)c1", "note": "(configuration not stated)", "values": [{"measurement": "IC50", "setting": "[1]", "result": "> 47.1 µM (inactive)"}, {"measurement": "EC50", "setting": "[2]", "result": "> 53 µM (inactive)"}]}, {"smiles": "COc1cccc(/C=N/NC(=O)c2c(-c3ccccc3)noc2C)c1O", "values": [{"measurement": "AC50", "setting": "INS1", "result": "2.5 µM (active)"}]}, {"smiles": "CC(NC(=O)COC(=O)C12CC3CC(CC(Br)(C3)C1)C2)c1ccccc1", "note": "(configuration not stated)", "values": [{"measurement": "IC50", "setting": "[1]", "result": "> 47.1 µM (inactive)"}, {"measurement": "EC50", "setting": "[2]", "result": "> 53 µM (inactive)"}]}, {"smiles": "C[C@H](NC(=O)[C@@H]1Cc2ccccc2CN1)C(=O)NC1CCCCC1", "values": [{"measurement": "IC50", "setting": "[1]", "result": "> 47.1 µM (inactive)"}, {"measurement": "EC50", "setting": "[2]", "result": "> 53 µM (inactive)"}]}, {"smiles": "CCn1c(C)nc2cc(C(=O)NN=Cc3ccc([N+](=O)[O-])cc3)ccc21", "values": [{"measurement": "IC50", "setting": "[1]", "result": "> 47.1 µM (inactive)"}, {"measurement": "EC50", "setting": "[2]", "result": "> 53 µM (inactive)"}]}, {"smiles": "O=[N+]([O-])c1cc(C(F)(F)F)ccc1NCCCCNS(=O)(=O)c1ccc(Cl)cc1", "values": [{"measurement": "AC50", "setting": "INS1", "result": "6.5 µM (active)"}]}, {"smiles": "CCC(C)Nc1nc(N)c([N+](=O)[O-])c(Nc2cc(OC)ccc2OC)n1", "note": "(configuration not stated)", "values": [{"measurement": "EC50", "setting": "[3]", "result": "10.7 µM (active)"}, {"measurement": "EC50", "setting": "[4]", "result": "2.35 µM (active)"}, {"measurement": "EC50", "setting": "[5]", "result": "12.8 µM (active)"}, {"measurement": "EC50", "setting": "[6]", "result": "13.3 µM (active)"}, {"measurement": "EC50", "setting": "Streptokinase A", "result": "> 150 µM (not active)"}, {"measurement": "EC50", "setting": "Streptococcus", "result": "11.9 µM (active)"}]}, {"smiles": "Cc1ccc(C)c(NC(S)=NCCCN2CCOCC2)c1", "values": [{"measurement": "IC50", "setting": "[1]", "result": "> 47.1 µM (inactive)"}, {"measurement": "EC50", "setting": "[2]", "result": "> 53 µM (inactive)"}]}, {"smiles": "C/C(=N\\Nc1nc(C)cc(-c2ccccc2)n1)c1ccc(F)cc1", "values": [{"measurement": "AC50", "setting": "INS1", "result": "3.13 µM (active)"}]}, {"smiles": "COc1ccc(C(=O)NCC(=O)N/N=C/c2ccc([N+](=O)[O-])s2)cc1OC", "values": [{"measurement": "EC50", "setting": "[7]", "result": "0.504 µM (active)"}, {"measurement": "EC50", "setting": "[8]", "result": "> 60 µM (not active)"}, {"measurement": "AC50", "setting": "INS1", "result": "8.94 µM (active)"}]}, {"smiles": "O=C1C=C(c2ccc(F)cc2OCc2ccccc2)C[C@@H](c2ccc(Cl)cc2)C1", "values": [{"measurement": "AC50", "setting": "INS1", "result": "4.89 µM (active)"}]}, {"smiles": "O=C(c1ccc2snnc2c1)N1CCN(c2ccccn2)CC1", "values": [{"measurement": "IC50", "setting": "[1]", "result": "> 47.1 µM (inactive)"}, {"measurement": "EC50", "setting": "[2]", "result": "> 53 µM (inactive)"}]}, {"smiles": "CNc1nc(NC)nc(NNC(=O)c2ccccc2)n1", "values": [{"measurement": "IC50", "setting": "[1]", "result": "> 47.1 µM (inactive)"}, {"measurement": "EC50", "setting": "[2]", "result": "> 53 µM (inactive)"}]}, {"smiles": "O=C1CC(Nc2cc(O)nc(O)n2)C(=O)N1c1ccccc1Cl", "note": "(configuration not stated)", "values": [{"measurement": "IC50", "setting": "[1]", "result": "> 47.1 µM (inactive)"}, {"measurement": "EC50", "setting": "[2]", "result": "> 53 µM (inactive)"}]}, {"smiles": "C/C(=N\\NC(=O)c1ccc(NS(=O)(=O)c2cccs2)cc1)c1ccccc1", "values": [{"measurement": "IC50", "setting": "[1]", "result": "> 47.1 µM (inactive)"}, {"measurement": "EC50", "setting": "[2]", "result": "> 53 µM (inactive)"}]}, {"smiles": "COc1ccccc1N1CCN(C(=O)/C=C/c2cccs2)CC1", "values": [{"measurement": "IC50", "setting": "[1]", "result": "> 47.1 µM (inactive)"}, {"measurement": "EC50", "setting": "[2]", "result": "> 53 µM (inactive)"}]}, {"smiles": "CCCCCCc1ccc(N2C[C@H](Cc3ccccc3)[C@@H](CC(=O)Nc3ccccc3)C2=O)cc1", "values": [{"measurement": "AC50", "setting": "INS1", "result": "14.2 µM (active)"}]}, {"smiles": "Cc1ccccc1NS(=O)(=O)c1ccc(C(=O)N(C)CC(=O)Nc2ccccc2Br)cc1", "values": [{"measurement": "IC50", "setting": "[1]", "result": "> 47.1 µM (inactive)"}, {"measurement": "EC50", "setting": "[2]", "result": "> 53 µM (inactive)"}]}, {"smiles": "Cc1ccc(C(=O)NCCSc2ccccc2)cc1S(=O)(=O)Nc1ccccc1", "values": [{"measurement": "EC50", "setting": "[3]", "result": "29.3 µM (active)"}, {"measurement": "EC50", "setting": "[5]", "result": "23.3 µM (active)"}, {"measurement": "EC50", "setting": "[6]", "result": "> 120 µM (not active)"}]}, {"smiles": "CCOc1ccc(CNC(=O)CCCn2nc(C)c3c(C)n(-c4ccc(C)cc4)nc3c2=O)cc1", "values": [{"measurement": "EC50", "setting": "[3]", "result": "11.4 µM (active)"}, {"measurement": "EC50", "setting": "[5]", "result": "> 120 µM (not active)"}, {"measurement": "EC50", "setting": "[6]", "result": "32.2 µM (active)"}]}]}
